Laboratory results as given in ChEMBL document CHEMBL1133248, “Synthesis and biological activity of phenoxyphenyl oxamic acid derivatives related to L-thyronine” (Bioorg Med Chem Lett, 2000).

What was measured:
[1] = Inhibition of [125I]L-T3 binding to rat hepatic 3,5,3''-triiodo-L-thyronine receptor
Rattus norvegicus [2] = assay: Atrial tension was determined after administration to rats at 25 mg/kg for 7 days at 20 pulse/min
Rattus norvegicus [3] = assay: Heart weight was determined after administration to rats at 25 mg/kg perorally for 7 days (in vivo on cardiovascular activity)
Rattus norvegicus [4] = assay: Heart rate was determined after administration to rats at 25 mg/kg perorally for 7 days (in vivo on cardiovascular activity)
Rattus norvegicus [5] = assay: Atrial tension was determined after administration to rats at 25 mg/kg for 7 days at 40 pulse/min
Rattus norvegicus [6] = assay: Atrial tension was determined after administration to rats at 100 ug/Kg for 7 days at 40 pulse/min; format: functional, Cardiac atrium
Rattus norvegicus [7] = assay: Heart rate was determined after administration to rats at 100 ug/Kg perorally for 7 days (in vivo on cardiovascular activity); format: functional
Rattus norvegicus [8] = assay: Heart weight was determined after administration to rats at 100 ug/Kg perorally for 7 days (in vivo on cardiovascular activity); format: functional
Rattus norvegicus [9] = assay: Atrial tension was determined after administration to rats at 100 ug/Kg for 7 days at 20 pulse/min; format: functional, Cardiac atrium

## Cc1cc(NC(=O)C(=O)O)cc(C)c1Oc1cccc(-c2ccccc2)c1
[1]
  IC50: 32 nM

## Cc1cc(NC(=O)C(=O)O)cc(C)c1Oc1ccc(O)c(-c2cccc(Cl)c2)c1
[1]
  IC50: 0.64 nM

## Cc1cc(NC(=O)C(=O)O)cc(C)c1Oc1ccc(O)c(-c2ccccc2Cl)c1
[1]
  IC50: 0.17 nM

## CCc1cc(Oc2c(C)cc(NC(=O)C(=O)O)cc2C)ccc1O
[1]
  IC50: 0.25 nM

## Cc1cc(NC(=O)C(=O)O)cc(C)c1Oc1ccc(O)c(C2CCCCC2)c1
Rattus norvegicus [2]
  Developed tension: 7.6%
Rattus norvegicus [3]
  Heart weight: 4.4
Rattus norvegicus [4]
  Heart rate: 6.3
Rattus norvegicus [5]
  Developed tension: 12.6%
[1]
  IC50: 2.2 nM

## Cc1cc(NC(=O)C(=O)O)cc(C)c1Oc1ccc(O)c(-c2ccccc2)c1
Rattus norvegicus [2]
  Developed tension: 3.7%
[1]
  IC50: 1.9 nM

## Cc1cc(Oc2c(C)cc(NC(=O)C(=O)O)cc2C)ccc1O
[1]
  IC50: 5.4 nM

## Cc1cc(NC(=O)C(=O)O)cc(C)c1S(=O)(=O)c1ccc(O)c(C2CCCCC2)c1
[1]
  IC50: 1.9 nM

## Cc1cc(NC(=O)C(=O)O)cc(C)c1Sc1ccc(O)c(C2CCCCC2)c1
[1]
  IC50: 2 nM

## Cc1cc(NC(=O)C(=O)O)cc(C)c1Oc1ccc(O)c(-c2cccc(C(F)(F)F)c2)c1
[1]
  IC50: 0.92 nM

## Cc1cc(NC(=O)C(=O)O)cc(C)c1Oc1ccc(O)c(-c2ccc(C(F)(F)F)cc2)c1
[1]
  IC50: 14 nM

## Cc1cc(NC(=O)C(=O)O)cc(C)c1Oc1ccc(O)c(-c2cccc(F)c2)c1
[1]
  IC50: 1.9 nM

## Cc1ccc(-c2cc(Oc3c(C)cc(NC(=O)C(=O)O)cc3C)ccc2O)cc1
[1]
  IC50: 9 nM

## N[C@@H](Cc1cc(I)c(Oc2ccc(O)c(I)c2)c(I)c1)C(=O)O [LIOTHYRONINE]
Rattus norvegicus [6]
  Developed tension: 12.7%
Rattus norvegicus [7]
  Heart rate: 52.5
Rattus norvegicus [8]
  Heart weight: 38.9
Rattus norvegicus [9]
  Developed tension: 18.2%
